Results: PMC11369887 (RSC Advances, 2024)
Read-outs that look alike come from different tables or passages of the source.

Columns and labels:
[1] = biological target: T1, human DNA topoisomerase II beta (Topo2β) (Homo sapiens, UniProt Q02880); assay: Topo2β polymerase inhibition assay (ELISA), Hep3B; assay type: cell-based; set-up: concentration or dose not given beside the values; details: against Hep3B cell line
Experimental: (§1) This assay was employed to predict the inhibitory effects of novel compounds on Topo2β. […] The melting points were determined using a Stuart apparatus, and the values given are uncorrected. IR spectra were recorded using a Shimadzu IR 4000s spectrophotometer (KBr, cm^−1) at the College of Pharmaceutical Sciences and Drug Manufacturing, Misr University for Science and Technology, Egypt. ^1H NMR spectra were recorded using a Bruker 400 MHz (Bruker Corp., Billerica, MA, USA) spectrophotometer, Faculty of Pharmacy, Cairo University, Cairo, Egypt and the Centre of Drug Discovery Research & Development, Faculty of Pharmacy, Ain shams University, and a Jeol 500 MHz spectrophotometer at the National Research Center. Chemical shifts were recorded in ppm on a δ scale, coupling constants (J) were given in Hz and peak multiplicities are designed as follows: s, singlet; d, doublet; t, triplet; m, multiplet. ^13C NMR spectra were recorded using a Bruker 100 MHz spectrophotometer, Faculty of Pharmacy, Cairo University and the Centre of Drug Discovery Research & Development, Faculty of Pharmacy, Ain shams University, and a Jeol 500 MHz spectrophotometer at the National Research Center. Chemical shifts were recorded in ppm on a δ scale. Microanalyses for C, H, and N were carried out at the Regional Center for Mycology and Biotechnology, Faculty of Pharmacy, Al-Azhar University. C, H, and N analysis values were accepted within the range of ± 0.4 of the calculated percentages. […] The used eluting system was methanol : hexane with a ratio of 9.5/0.5 respectively. Scientific microwave MAS-II was used under 300 W microwave irradiation, operating at 80 °C. The evaluation of the cytotoxic activity was performed at VACSERA, Giza, Egypt, using MCF-7, Hep3B and leukemia SR cell lines. Enzyme assay, cell cycle analysis, apoptosis and caspase-3 assay were carried out at VACSERA, Giza, Egypt using an SEB870Hu 96 Tests Enzyme-linked Immunosorbent Assay Kit for Topoisomerase II Beta.
This assay employs a quantitative sandwich enzyme immunoassay technique. […] Antibody specific for Topo2β was pre-coated onto a microplate. Standards and samples were pipetted into the wells and any Topo2β present was bound by the immobilized antibody. After removing any unbound substances, a biotin-conjugated antibody specific for Topo2β was added to the wells. After washing, avidin-conjugated Horseradish Peroxidase (HP) was added to the wells. Following washing to remove any unbound avidin–enzyme reagent, a substrate solution was added to the wells and color develops in proportion to the amount of Topo2β bound in the initial step. The color development was stopped, and the intensity of the color was measured. […] The sensitivity of this assay or lower limit of detection (LLD) is defined as the lowest protein concentration that could be differentiated from zero. The mean OD value of 20 replicates of the zero standard was determined and added to their three standard deviations.[64]

[2] = tested on: human breast cancer (MCF-7) cell line; assay: MTT cytotoxicity assay, MCF-7; details: Homo sapiens, MCF7, 48 h, read-out: Cytotoxicity IC50 MCF-7
Experimental: (§2) The newly synthesized compounds were evaluated for their in vitro growth inhibition of three human tumor cell lines representing different tumor types, namely, breast adenocarcinoma (MCF-7), liver hepatocellular carcinoma (Hep3B) and leukemia-SR. […] The breast tumor cell line (MCF-7), hepatic tumor cell line (Hep3B) and leukemia-SR cell line were obtained from American Type Culture Collection. The cells were cultured using Dulbecco's modified Eagle's medium (DMEM) (Invitrogen/Life Technologies) supplemented with 10% fetal bovine serum (FBS) (Hyclone), 10 μg mL^−1 of insulin (Sigma), and 1% penicillin–streptomycin. […] For 24 hours before to the MTT experiment, plate cells (densities of 1.2–1.8 × 10 000 cells per well) were layered in a 96-well plate containing 100 μL of the tested chemical per well and 100 μL of full growth media.
(§3) The culture medium was transferred to a centrifuge tube. […] Then 2.0 to 3.0 mL of Trypsin EDTA solution was added to the flask, and the cells were observed using an inverted microscope until the cell layer became dispersed (usually within 5–15 min). After that, 6.0 to 8.0 mL of complete growth medium was added and the cells were aspirated by gently pipetting. The cell suspension was transferred to the centrifuge tube with the medium and cells from step 1 and centrifuged at approximately 125 g for 5–10 min. The supernatant was discarded. The cell pellet was re-suspended in a fresh growth medium. Appropriate aliquots of the cell suspension were added to new culture vessels.
(§4) For the best results, the cells in the log phase of growth should be employed and the final cell number should not exceed 10^6 cells per cm^2. Each test should include a blank containing a complete medium without cells. Cultures from the incubator were transferred into a laminar flow hood or other sterile work area. […] Reconstituted MTT was added in an amount equal to 10% of the culture medium volume. Cultures were returned to the incubator for 2–4 h depending on the cell type and maximum cell density. An incubation period of 2 h is generally adequate but may be lengthened for low cell densities or cells with lower metabolic activity. The incubation times should be consistent when making comparisons. […] Occasionally, especially in dense cultures, pipetting up and down may be required to completely dissolve the MTT formazan crystals. The absorbance was spectrophotometrically measured at a wavelength of 570 nm. The background absorbance of multiwell plates was measured at 690 nm and subtracted from the 450 nm measurement. Tests performed in multiwell plates might be read using an appropriate type of plate reader or the contents of individual wells might be transferred to appropriate size cuvettes for spectrophotometric measurement.

[3] = tested on: human liver cancer (Hep3B) cell line; assay: MTT cytotoxicity assay, Hep3B; details: Homo sapiens, Hep3B
Experimental: as §2, §3, §4

[4] = in vitro; details: human, THLE2 normal liver cells
Experimental: (§5) The following normal cell lines were selected: normal breast MCF-10a, normal liver THLE2 and normal lymphocyte PCS-800-011. […] Moreover, the toxic effect of representative target compounds was evaluated on normal breast (MCF10a), normal liver (THLE2) and normal lymphocyte (PCS-800-011) cell lines using an MTT assay. […] The cells were cultured using Dulbecco's modified Eagle's medium (DMEM) (Invitrogen/Life Technologies) supplemented with 10% fetal bovine serum (FBS) (Hyclone), 10 μg mL^−1 of insulin (Sigma), and 1% penicillin–streptomycin. All chemicals and reagents were purchased from Sigma-Aldrich or Invitrogen. For 24 hours before to the MTT experiment, plate cells (densities of 1.2–1.8 × 10 000 cells per well) were layered in a 96-well plate containing 100 μL of the tested chemical per well and 100 μL of full growth media.
as §3, §4

[5] = tested on: leukemia (L-SR) cell line; assay: MTT cytotoxicity assay, L-SR; details: Homo sapiens, 48 h, read-out: Cytotoxicity IC50 L-SR
Experimental: as §2, §3, §4

[6] = tested on: Hep3B cells; assay: Annexin V-FITC/propidium iodide apoptosis assay; details: for Total %: apoptosis and necrosis total; for Total % / Early apoptosis % / Late apoptosis % / Necrosis %: treated at IC50; for percentage of apoptotic cells (summation of Q2 and Q3): early plus late apoptosis
Experimental: An Annexin-V-FITC apoptosis assay was used to determine apoptosis and necrosis. The cells were incubated with Annexin-V-FITC, centrifuged and then resuspended in 500 μL of 1× binding buffer. Then 5 μL of Annexin-V-FITC and 5 μL of propidium iodide (PI) were added, and the cells were then trypsinized and washed once with serum-containing media before incubation with Annexin-V-FITC at room temperature for 5 min in the dark. A FACSort Calibur flow cytometer (Becton Dickinson Biosciences) was used to analyze apoptosis.[56,57]

[7] = tested on: active caspase-3; assay: Caspase-3 enzyme assay (ELISA) in Hep3B; assay type: cell-based, human; details: Hep3B cells
Experimental: Caspases are crucial mediators of apoptosis. Among them, caspase-3 is considered as a key effector caspase in inducing cell apoptosis and serves as a marker of programmed cell death.[58] Compounds 3c and 5 were tested for their effect on caspase-3 levels in the most sensitive liver cancer cell line Hep3B.
Caspase-3 is one of the crucial mediators of programmed cell death (apoptosis) as it is essential for the formation of apoptotic bodies.[67–70] Active caspase-3 level was measured in pg ml^−1 protein using an Invitrogen ELISA kit (catalog KHO1091). The following procedures were performed. First, 100 μL of the standard diluent buffer was added to the zero standard wells. Then, 100 μL of standards and controls or diluted samples were added to the appropriate microtitre wells. Cover wells were covered and incubated for 2 h at room temperature. The solution was decanted from wells. Then 100 μL of active caspase-3 detection antibody solution was pipetted into each well. The plate was covered and incubated for 1 h at room temperature. After that, 100 μL of Anti-Rabbit IgG HP working solution was added to each well. The wells were covered with a plate cover and incubated for 30 min at room temperature. Then, 100 μL of stabilized chromogen was added to each well. The liquid in the wells will begin to turn blue, and the wells were incubated for 30 min at room temperature. A stop solution was added to each well. The solution in the wells should change from blue to yellow. The plate was read within 2 h after adding the stop solution. Curve fitting software was used to generate the standard curve.

[8] = tested on: Hep3B cells; assay: Cell cycle analysis by propidium iodide staining, flow cytometry; assay type: cell-based, human; details: Hep3B cells treated at IC50
Experimental: An apoptosis study was performed at the Cell Culture Unit, VACSERA, Cairo, Egypt. […] The treated cells were washed twice with ice-cold phosphate-buffered saline (PBS), centrifuged and then fixed in ice-cold 70% (v/v) ethanol to prevent clustering of cells during fixation. […] Then 3 mL of PBS was added, and the cells were centrifuged to remove the supernatant. The cells were analyzed by flow cytometry using a FACSort Calibur (Becton Dickinson Biosciences, CA, USA). Finally, the Cell Quest software was used to determine the cell cycle distribution.[65,66]

[9] = in vitro; details: human, PCS-800-011 normal lymphocyte cells
Experimental: as §5, §3, §4

[10] = biological target: T1, human DNA topoisomerase II beta (Topo2β); assay: Topo2β polymerase inhibition assay (ELISA), L-SR; assay type: cell-based; set-up: endogenous in cells; host or cells: MCF-7 (A4), Hep3B (A5), L-SR (A6) human cancer cell lines; details: against L-SR cell line
Experimental: as §1
This assay employs a quantitative sandwich enzyme immunoassay technique. […] Antibody specific for Topo2β was pre-coated onto a microplate. Standards and samples were pipetted into the wells and any Topo2β present was bound by the immobilized antibody. After removing any unbound substances, a biotin-conjugated antibody specific for Topo2β was added to the wells. After washing, avidin-conjugated Horseradish Peroxidase (HP) was added to the wells. […] The color development was stopped, and the intensity of the color was measured. […] The mean OD value of 20 replicates of the zero standard was determined and added to their three standard deviations.[64]

[11] = biological target: T1, human DNA topoisomerase II beta (Topo2β); assay: Topo2β polymerase inhibition assay (ELISA), MCF-7; assay type: cell-based; details: against MCF-7 cell line
Experimental: as §1, with “Enzyme assay, cell cycle analysis, apoptosis and caspase-3 assay were carried out at VACSERA, Giza, Egypt using an SEB870Hu 96 Tests Enzyme-linked Immunosorbent Assay Kit for Topoisomerase II Beta.” left out
This assay employs a quantitative sandwich enzyme immunoassay technique. […] The color development was stopped, and the intensity of the color was measured. […] The mean OD value of 20 replicates of the zero standard was determined and added to their three standard deviations.[64]

[12] = in vitro; details: human, MCF-10a normal breast cells
Experimental: as §5, §3
For the best results, the cells in the log phase of growth should be employed and the final cell number should not exceed 10^6 cells per cm^2. […] The absorbance was spectrophotometrically measured at a wavelength of 570 nm. The background absorbance of multiwell plates was measured at 690 nm and subtracted from the 450 nm measurement. Tests performed in multiwell plates might be read using an appropriate type of plate reader or the contents of individual wells might be transferred to appropriate size cuvettes for spectrophotometric measurement.

[13] = tested on: leukemia (L-SR) cell line
Experimental: as §2, §3, §4

[14] = tested on: human liver cancer (Hep3B) cell line
Experimental: as §2, §3, §4

[15] = tested on: human breast cancer (MCF-7) cell line
Experimental: as §2, §3, §4

[16] = 48 h, read-out: Cytotoxicity IC50 Hep3B

T1 sequence (Q02880 whole entry): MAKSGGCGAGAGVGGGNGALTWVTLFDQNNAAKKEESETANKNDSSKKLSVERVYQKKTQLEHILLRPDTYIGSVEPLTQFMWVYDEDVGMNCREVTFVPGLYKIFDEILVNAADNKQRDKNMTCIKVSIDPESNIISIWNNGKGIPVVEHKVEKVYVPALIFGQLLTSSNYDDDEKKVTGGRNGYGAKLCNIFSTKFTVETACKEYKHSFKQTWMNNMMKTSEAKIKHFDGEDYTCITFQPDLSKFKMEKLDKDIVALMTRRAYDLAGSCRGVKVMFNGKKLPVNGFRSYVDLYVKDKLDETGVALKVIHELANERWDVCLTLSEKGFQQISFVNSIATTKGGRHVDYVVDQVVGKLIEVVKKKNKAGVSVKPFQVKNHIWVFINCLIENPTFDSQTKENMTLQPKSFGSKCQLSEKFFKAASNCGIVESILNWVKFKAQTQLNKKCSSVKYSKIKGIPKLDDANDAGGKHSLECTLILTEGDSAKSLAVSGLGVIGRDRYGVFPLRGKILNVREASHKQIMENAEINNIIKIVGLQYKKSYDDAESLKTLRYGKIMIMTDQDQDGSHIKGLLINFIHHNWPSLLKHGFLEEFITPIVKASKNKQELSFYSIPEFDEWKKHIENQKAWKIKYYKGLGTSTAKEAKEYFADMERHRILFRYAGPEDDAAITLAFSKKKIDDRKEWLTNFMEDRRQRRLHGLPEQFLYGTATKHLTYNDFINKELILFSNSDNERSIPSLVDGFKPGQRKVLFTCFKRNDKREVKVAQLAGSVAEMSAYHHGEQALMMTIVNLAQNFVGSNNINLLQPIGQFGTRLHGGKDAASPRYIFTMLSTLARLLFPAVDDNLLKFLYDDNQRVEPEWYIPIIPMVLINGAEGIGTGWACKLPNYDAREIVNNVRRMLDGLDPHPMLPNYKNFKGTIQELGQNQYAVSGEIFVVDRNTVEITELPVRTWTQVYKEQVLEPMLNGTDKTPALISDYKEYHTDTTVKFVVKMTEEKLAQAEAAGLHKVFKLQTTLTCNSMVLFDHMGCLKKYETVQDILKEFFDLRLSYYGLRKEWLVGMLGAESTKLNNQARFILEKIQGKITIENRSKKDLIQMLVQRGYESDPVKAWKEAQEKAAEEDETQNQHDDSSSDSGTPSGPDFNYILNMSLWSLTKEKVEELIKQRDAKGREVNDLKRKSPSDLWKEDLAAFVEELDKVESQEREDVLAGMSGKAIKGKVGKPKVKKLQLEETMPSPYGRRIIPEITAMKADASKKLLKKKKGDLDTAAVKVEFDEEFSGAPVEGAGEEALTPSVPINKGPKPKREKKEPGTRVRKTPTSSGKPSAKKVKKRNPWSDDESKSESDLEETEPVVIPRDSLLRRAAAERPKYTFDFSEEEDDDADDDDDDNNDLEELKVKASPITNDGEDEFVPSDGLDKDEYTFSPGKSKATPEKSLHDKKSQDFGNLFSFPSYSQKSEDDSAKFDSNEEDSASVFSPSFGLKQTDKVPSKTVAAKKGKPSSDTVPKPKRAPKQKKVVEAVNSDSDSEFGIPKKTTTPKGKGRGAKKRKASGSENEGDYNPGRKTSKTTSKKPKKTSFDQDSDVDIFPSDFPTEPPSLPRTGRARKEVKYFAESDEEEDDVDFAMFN

Topo2β% inhibition [1] | IC50 at 48 h [4] | IC50 at 48 h [9] | Topo2β% inhibition [10] | Topo2β% inhibition [11] | IC50 at 48 h [12] | Molecule | IC50 [2] | IC50 [3] | IC50 [3, 16] | IC50 [5] | Total % [6] | percentage of apoptotic cells (summation of Q2 and Q3) [6] | Early apoptosis % [6] | Late apoptosis % [6] | Necrosis % [6] | Caspase-3 Conc. [7] | DNA content %G0–G1 [8] | DNA content %G2/M [8] | DNA content %S [8] | further results
71.92% | 68.5 ± 3.86 µM | 32.1 ± 1.68 µM |  |  |  | CC1COc2c(N3CCN(C)CC3)c(F)cc3c(=O)c(C(=O)N4NC(=O)CC4=N)cn1c23 (centres unmarked) [Compound 7, 9-Fluoro-6-((5-imino-3-oxopyrazolidine-1-yl)carbonyl)-3-methyl-10-(4-methylpiperazin-1-yl)-2,3-dihydro-7H-[1,4]oxazino[2,3,4-ij]quinolin-7-one] | 4.37 ± 0.2 µM |  | 6.99 ± 0.32 µM | 12.1 ± 0.73 µM |  |  |  |  |  |  |  |  |  | melting point: 101 to 103 °C
83.73% | 40.6 ± 2.28 µM | 19.7 ± 1.03 µM | 80.29% | 78.30% | 30.4 ± 1.66 µM | CCOC(=O)CC(C)=NNC(=O)c1cn2c3c(c(N4CCN(C)CC4)c(F)cc3c1=O)OCC2C (centres unmarked) [Compound 5, Ethyl 3-(2-(9-fluoro-3-methyl-10-(4-methylpiperazin-1-yl)-7-oxo-2,3-dihydro-7H-[1,4]oxazino[2,3,4-ij]quinoline-6-carbonyl)hydrazineylidene)butanoate] | 1.4 ± 0.06 µM |  | 3.77 ± 0.17 µM | 0.96 ± 0.06 µM | 38.11% | 32.21% | 9.54% | 22.67% | 5.9% | 375.8 ± 16.6 pg/mL | 38.49% | 22.42% | 39.09% | 

The remaining lines, values behind:

Molecule | Topo2β% inhibition [1] | IC50 at 48 h [4] | IC50 at 48 h [9] | Topo2β% inhibition [10] | Topo2β% inhibition [11] | IC50 at 48 h [12] | IC50 [2] | IC50 [3] | IC50 [3, 16] | IC50 [5] | Total % [6] | percentage of apoptotic cells (summation of Q2 and Q3) [6] | Early apoptosis % [6] | Late apoptosis % [6] | Necrosis % [6] | Caspase-3 Conc. [7] | DNA content %G0–G1 [8] | DNA content %G2/M [8] | DNA content %S [8] | further results
COc1ccc(C=NNC(=O)c2cn3c4c(c(N5CCN(C)CC5)c(F)cc4c2=O)OCC3C)cc1 (centres unmarked) [Compound 3c, 9-Fluoro-3-methyl-10-(4-methylpiperazin-1-yl)-N′-(4-methoxybenzylidene)-7-oxo-2,3-dihydro-7H-[1,4]oxazino[2,3,4-ij]quinoline-6-carbohydrazide] | 81.33% | 20 ± 0.76 µM |  |  |  |  | 40.6 ± 3.17 µM | 0.43 µM | 0.43 ± 0.01 µM | 22.4 ± 1.34 µM | 32.91% | 25.87% | 11.54% | 14.33% | 7.04% | 407.3 ± 7.55 pg/mL | 43.53% | 18.91% | 37.56% | 
COc1cc([C@@H]2c3cc4c(cc3[C@@H](O[C@@H]3O[C@@H]5CO[C@@H](C)O[C@H]5[C@H](O)[C@H]3O)[C@H]3COC(=O)[C@H]23)OCO4)cc(OC)c1O [Etoposide, reference compound] | 73.22% | 35.2 ± 2.19 µM | 37.1 ± 1.79 µM | 69.85% | 63.18% | 23.9 ± 1.55 µM | 16.3 ± 0.72 µM | 21.9 µM | 21.9 ± 0.72 µM | 3.38 ± 0.13 µM | 27.09% |  | 3.41% | 9.37% | 14.31% | 460 ± 11.3 pg/mL | 36.14% | 37.62% | 26.24% | 
9-Fluoro-3-methyl-6-((3-methyl-5-oxo-4,5-dihydro-1H-pyrazol-1-yl)carbonyl)-10-(4-methylpiperazin-1-yl)-2,3-dihydro-7H-[1,4]oxazino[2,3,4-ij]quinolin-7-one [Compound 6] |  |  |  |  |  |  |  |  |  |  |  |  |  |  |  |  |  |  |  | IC50 [13]: 28.9 ± 1.75 µM; IC50 [14]: 13.1 ± 0.61 µM; IC50 [15]: 40.6 ± 1.88 µM
C[C@H]1COc2c(N3CCN(C)CC3)c(F)cc3c(=O)c(C(=O)O)cn1c23 [Levofloxacin, reference compound] | 73.59% | 29.9 ± 1.52 µM | 20.2 ± 0.85 µM | 70.40% | 59.80% | 22.2 ± 1.41 µM | 2.79 ± 0.16 µM | 8.94 µM | 8.94 ± 0.29 µM | 7.38 ± 0.31 µM | 34.62% | 23.60% | 0.95% | 22.65% | 11.02% | 391.7 ± 5.86 pg/mL | 29.66% | 39.87% | 30.47% | 
